Measured values from EP0329902A1, “Use of quinolizinone and quinolizine derivatives in the manufacture of medicaments for the treatment of psychosis” (MERRELL DOW PHARMACEUTICALS INC., priority 1988, dated 1989).
Structures can show the parent of a compound that is named as a salt.

System: Von Bezold-Jarisch Reflex induced by 5-HT
Assay: Von Bezold-Jarisch Reflex induced by 5-HT injected intravenously
Format: in vivo
Settings: rat
Text: The activity of these compounds agianst 5-HT can be assessed in vivo by measurement of the effect of the compound on the Von Bezold-Jarisch Reflex induced by 5-HT injected intravenously into the rat (see Paintal A.S., Physiol. Rev. 53, 159-227, 1973; J.R. Fozard, Naunyn-Schmiedeberg's Arch. Pharmacol., 326, 1984, 36-44). The transient cardiac slowing arises from an increased afferent vagus activity arising from stimulation by 5-HT of sensory afferent fibres in and around the heart.

[1] = doses of 0.01-0.1 mg/kg given intravenously
[2] = doses of 0.25-1 mg/kg given orally

Row | Structure (SMILES) | suppression of the Von Bezold-Jarisch Reflex response [1] | suppression of the Von Bezold-Jarisch Reflex response [2]
1 | Cc1cc(C)cc(C(=O)OC2CC3CC4CC(C2)N3CC4=O)c1 (stereo not drawn) [endo-8-(3,5-dimethylbenzoyloxy)hexahydro-2,6-methano-2H-quinolizin-3(4H)-one] | suppressed the response dose-dependently | suppressed the response dose-dependently
2 | O=C(OC1CC2CC3CC(C1)N2CC3=O)c1c[nH]c2ccccc12 (stereo not drawn) [endo-hexahydro-8-(3-indolylcarbonyloxy)-2,6-methano-2H-quinolizin-3(4H)one hydrochloride] | suppressed the response dose-dependently | suppressed the response dose-dependently
